# In US9695155B2, “Herbicidal substituted pyrimidinyloxy benzene compounds” (E. I. DU PONT DE NEMOURS AND COMPANY, priority 2013, dated 2017):
# Key:
# sedge, umbrella = test: Test B flooded paddy test; format: in vivo, Cyperus difformis; conditions: Flood, 250 g ai/ha; 0 to 100 scale where 0 is no effect and 100 is complete control
# How it was run: (§1)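 Plants at 2-leaf stage; pots flooded to 3 cm above soil and compound applied directly into paddy water, depth held throughout. After 13 to 15 days in greenhouse, visual rating versus controls on 0 (no effect) to 100 (complete control) scale.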
# galium = test: Test C postemergence; format: in vivo, Galium aparine
# How it was run: (§2)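 Seeds were sown in loam–sand blend and sprayed preemergence, while plants at 1- to 4-leaf stage (2–18 cm) in peat-based medium received postemergence sprays; test chemicals were formulated in a non-phytotoxic solvent with surfactant. After 13–15 days in a greenhouse, injury was rated visually against controls, 0 (no effect) to 100 (complete control).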
# rice = test: Test B flooded paddy test; format: in vivo, Oryza sativa; conditions: Flood, 250 g ai/ha; 0 to 100 scale where 0 is no effect and 100 is complete control
# How it was run: as §1
# barnyardgrass [1] = test: Test A preemergence; format: in vivo, Echinochloa crus-galli
# How it was run: (§3)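 Injury scores run from 0, no effect, to 100, complete control, judged by eye against untreated plants roughly 10 days after treatment. Chemicals carried a surfactant in a non-phytotoxic solvent and went onto loam–sand soil preemergence or onto one- to two-leaf seedlings postemergence.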
# large (Lg) crabgrass = test: Test C postemergence; format: in vivo, Digitaria sanguinalis
# How it was run: as §2
# pigweed = test: Test A postemergence; format: in vivo, Amaranthus retroflexus; conditions: 0 to 100 scale, 0 no effect, 100 complete control
# How it was run: as §3
# lambsquarters = test: Test C postemergence; format: in vivo, Chenopodium album
# How it was run: as §2
# barnyardgrass [2] = test: Test C postemergence; format: in vivo, Echinochloa crus-galli
# How it was run: as §2
# yellow nutsedge = test: Test C postemergence; format: in vivo, Cyperus esculentus
# How it was run: as §2
# ragweed = test: Test C postemergence; format: in vivo, Ambrosia elatior
# How it was run: as §2
# Italian ryegrass = test: Test C postemergence; format: in vivo, Lolium multiflorum
# How it was run: as §2
# soybean = test: Test C postemergence; format: in vivo, Glycine max
# How it was run: as §2
# blackgrass = test: Test C postemergence; format: in vivo, Alopecurus myosuroides
# How it was run: as §2
# [3] = 16 g ai/ha, postemergence, 0 is no effect, 100 is complete control
# [4] = 31 g ai/ha, postemergence, visual rating, scale 0 to 100 (0 no effect, 100 complete control), 13 to 15 days
# [5] = 125 g ai/ha, postemergence, visual rating, scale 0 to 100 (0 no effect, 100 complete control)
# [6] = Postemergence, 62 g ai/ha, scale 0 to 100 (0 no effect, 100 complete control), 13 to 15 days
structure (smiles),measurement,setting,value
FCc1cccc(Oc2ncc(Cl)cn2)c1-n1cc(I)cn1 [Compound 245],"Plant response rating, Sedge, Umbrella","sedge, umbrella",60
same,"Plant response rating (0 to 100), Galium",galium; [3],60
same,Galium plant response rating,galium; [4],60
same,"Plant response rating, Galium",galium; [5],85
same,"Plant response rating, Galium",galium; [6],80
same,"Plant response rating, Rice",rice,0
same,"Plant response rating, Barnyardgrass","barnyardgrass [1]; 31 g ai/ha, 0 to 100 scale where 0 is no effect and 100 is complete control, visual, approximately 10 days",0
same,"Barnyardgrass plant response rating (0 to 100 scale, 0 is no effect, 100 is complete control)",barnyardgrass [1]; 125 g ai/ha,70
same,"Plant response rating (0 to 100), Crabgrass, Large",large (Lg) crabgrass; [3],5
same,"Crabgrass, Large plant response rating",large (Lg) crabgrass; [4],5
same,"Plant response rating, Crabgrass, Large",large (Lg) crabgrass; [5],15
same,"Plant response rating, Crabgrass, Large",large (Lg) crabgrass; [6],10
same,"Plant response rating, Pigweed",pigweed; 31 g ai/ha,0
same,"Plant response rating, Pigweed",pigweed; 125 g ai/ha,90
same,"Plant response rating (0 to 100), Lambsquarters",lambsquarters; [3],50
same,Lambsquarters plant response rating,lambsquarters; [4],70
same,"Plant response rating, Lambsquarters",lambsquarters; [5],98
same,"Plant response rating, Lambsquarters",lambsquarters; [6],80
same,"Plant response rating (0 to 100), Barnyardgrass",barnyardgrass [2]; [3],5
same,Barnyardgrass plant response rating,barnyardgrass [2]; [4],5
same,"Plant response rating, Barnyardgrass",barnyardgrass [2]; [5],5
same,"Plant response rating, Barnyardgrass","barnyardgrass [2]; Postemergence, 62 g ai/ha, scale 0 to 100 (0 no effect, 100 complete control)",5
same,"Plant response rating (0 to 100), Nutsedge, Yellow",yellow nutsedge; [3],5
same,"Nutsedge, Yellow plant response rating",yellow nutsedge; [4],5
same,"Plant response rating, Nutsedge, Yellow",yellow nutsedge; [5],10
same,"Plant response rating, Nutsedge, Yellow",yellow nutsedge; [6],5
same,"Plant response rating (0 to 100), Ragweed",ragweed; [3],35
same,Ragweed plant response rating,ragweed; [4],40
same,"Plant response rating, Ragweed",ragweed; [5],60
same,"Plant response rating, Ragweed",ragweed; [6],45
same,"Plant response rating (0 to 100), Ryegrass, Italian",Italian ryegrass; [3],0
same,"Ryegrass, Italian plant response rating",Italian ryegrass; [4],0
same,"Plant response rating, Ryegrass, Italian",Italian ryegrass; [5],5
same,"Plant response rating, Ryegrass, Italian",Italian ryegrass; [6],0
same,"Plant response rating (0 to 100), Soybean",soybean; [3],40
same,Soybean plant response rating,soybean; [4],60
same,"Plant response rating, Soybean",soybean; [5],90
same,"Plant response rating, Soybean",soybean; [6],60
same,"Plant response rating (0 to 100), Blackgrass",blackgrass; [3],0
same,Blackgrass plant response rating,blackgrass; [4],0
same,"Plant response rating, Blackgrass",blackgrass; [5],5
same,"Plant response rating, Blackgrass",blackgrass; [6],5
